According to patent US20210253598A1, “ARYL ANNULATED MACROCYCLIC INDOLE DERIVATIVES” (priority 2017, published 2021):
Where “and” joins values, the source holds several entries; their conditions need not be identical. Equal values may be shown once. Where a name gives a salt, the structure may show the parent alone. Read-outs that look alike come from different tables or passages of the source.

What was measured:
SUDHL5 [1] = experiment: Anti-proliferative effect in SUDHL5 cells, CellTiter-Glo (Assay 7); format: cell-based
How it was run: (§1)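 Cells were plated and incubated overnight at 37 °C alongside a day 0 reference plate, then exposed to compound for 72 h. Viability was read by CellTiter-Glo luminescence, and IC50s were calculated using day 0 values and DMSO controls as references.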

SUDHL5 [2] = experiment: Induction of cytotoxicity in SUDHL5 cells, CellTiter-Glo (Assay 6); format: cell-based; conditions: SUDHL5, 5 hours incubation, median, read-out: Cytotox SUDHL5 [M] (median)
How it was run: (§2)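 Luminescent ATP readout (CellTiter-Glo, 15 min at room temperature) quantifies cytotoxicity after a 5 h compound exposure at 37 °C.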

SUDHL10 [3] = experiment: Induction of cytotoxicity in SUDHL10 cells, CellTiter-Glo (Assay 6); format: cell-based; conditions: SUDHL10, 5 hours incubation, median, read-out: Cytotox SUDHL10 [M] (median)
How it was run: as §2

SUDHL5 [4] = experiment: Induction of caspase-3/7 activity in SUDHL5 cells (Assay 4); format: cell-based
How it was run: (§3)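 Luminescent Caspase-Glo 3/7 read-out in SUDHL5 and SUDHL10 cells after 3 h compound exposure at 37 °C, followed by 1 h reagent incubation.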

BCL-2 = BCL-2 (Homo sapiens, UniProt P10415); experiment: Protein-protein interaction assay BCL-2/Bad BH3 peptide, TR-FRET (BCL-2 assay, Assay 3); format: binding; conditions: His-BCL-2 / Bad BH3 peptide, median
A2780 = experiment: Anti-proliferative effect in A2780 cells, CellTiter-Glo (Assay 7); format: cell-based; conditions: Homo sapiens, A2780, 72 h, several values per example
How it was run: as §1

BCL-XL = BCL-XL (Homo sapiens, UniProt Q07817); experiment: Protein-protein interaction assay BCL-XL/Bad BH3 peptide, TR-FRET (BCL-XL assay, Assay 2); format: binding; conditions: His-BCL-XL / Bad BH3 peptide, median
Experimental: Protein-Protein Interaction Assay: BCL-XL/Bad BH3 Peptide (BCL-XL Assay)
The dose-dependent inhibition by the compounds described in this invention of the interaction between BCL-XL and the BH3 domain of Bad (both human) was determined using a steady state binding competition assay with time-resolved fluorescence energy transfer (TR-FRET) readout. For that purpose BCL-XL (amino acids 1-212, C-terminal fused to a hexahistidine (6×His) tag (SEQ ID 3) and a synthetic Bad BH3-derived peptide of sequence Biotin-PEG2-PEG2-[sequence]-Nle-[sequence]-amide (SEQ ID 4) served as protein receptor and tracer ligand respectively. The recombinant BCL-XL protein (expressed in E. coli) was purchased from BPS Bioscience (San Diego, Calif., USA). The Bad BH3-derived peptide can be obtained from e.g. Biosyntan (Berlin, Germany).
For that, 100-fold concentrated DMSO solutions were prepared by serial dilutions (1:3.4) of a 2 mM stock solution in a clear, 384-well microtiter plate (Greiner Bio-One, Frickenhausen, Germany). From there, 50 nl were transferred in a dark test plate (Greiner Bio-One, Frickenhausen, Germany). The assay was initiated by addition of 2 μl of a 2,5-fold concentrated His-BCL-XL solution (usually for a 1 nM end concentration in 5 μl reaction volume) in aqueous assay buffer [50 mM Tris/HCl pH 7, 100 mM sodium chloride (NaCl), 50 mM potassium fluoride (KF), 0.005% Tween-20, 2 mM DTT, 0.1% bovine gamma globulin (BGG)] to the compounds in the assay plate. This was followed by a 10-minute incubation step at 22° C. for pre-equilibration of the putative complex between His-BCL-XL and the compounds.
The mixture was incubated in the dark for one hour at 22° C. and then overnight at 4° C. The formation of BCL-XL/Bad complexes was determined by measuring the resonance energy transfer of the anti-His- Eu-cryptate antibody to the streptavidin-XL665 present in the reaction. For that purpose, the fluorescence emission at 620 nm and 665 nm after excitation at 330-350 nm was measured in a TR-FRET measuring instrument, for instance a Rubystar or a Pherastar (both from BMG Lab Technologies, Offenburg, Germany) or a Viewlux (Perkin-Elmer). The ratio of the emission at 665 nm and at 622 nm was used as indicator of the amount of BCL-XL/Bad complexes present.
The resulting data (ratio) were normalized, taking 0% inhibition as the mean value of control measurements (usually 32 data points) where all reagents were included. In this case 50 nl DMSO were used instead of compounds. […] IC50 values were determined by regression analysis based on a 4 parameter equation (minimum, maximum, IC50, Hill; Y=Max+(Min−Max)/(1+(X/IC50)^Hill) using the Screener Software (Genedata).

AMO-1 = experiment: Anti-proliferative effect in AMO-1 cells, CellTiter-Glo (Assay 7); format: cell-based; conditions: several values per example
How it was run: as §1

SUDHL10 [5] = experiment: Induction of caspase-3/7 activity in SUDHL10 cells (Assay 4); format: cell-based
How it was run: as §3

MCL-1 = MCL-1 (Homo sapiens, UniProt Q07820, K194A/K197A/R201A); experiment: Protein-protein interaction assay MCL-1/Noxa BH3 peptide, TR-FRET (MCL-1 assay, Assay 1); format: binding; conditions: MCL-1 Assay [M] (median), MBP-MCL-1 / Noxa BH3 peptide
How it was run: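 TR-FRET competition between compounds and a biotin-PEG Noxa BH3 tracer for 1 nM MBP-MCL-1 (residues 173-321). Incubation was 1 h at 22 °C in the dark, then overnight at 4 °C, in 50 mM Tris pH 7 buffer with KF and DTT, after a 10-min compound pre-equilibration. Normalized ratios were fitted with a 4-parameter Hill equation to give IC50.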

MV-4-11 = experiment: Anti-proliferative effect in MV-4-11 cells, CellTiter-Glo (Assay 7); format: cell-based; conditions: several values per example
How it was run: as §1

[6] = Homo sapiens, SU-DHL-5, 72 h, SUDHL5, 72 hours incubation, CellTiter-Glo, median, read-out: Antiproli SUDHL5 [M] (median)
[7] = Homo sapiens, SU-DHL-5, 3 h, SUDHL5, 3 hours treatment, Caspase-Glo 3/7, median, read-out: Caspase SUDHL5 [M] (median)
[8] = A2780, 72 hours incubation, CellTiter-Glo, read-out: Antiproli A2780
[9] = Homo sapiens, AMO1, 72 h, AMO-1, 72 hours incubation, CellTiter-Glo, read-out: Antiproli AMO-1
[10] = Homo sapiens, SU-DHL10, 3 h, SUDHL10, 3 hours treatment, Caspase-Glo 3/7, median, read-out: Caspase SUDHL10 [M] (median)
[11] = Homo sapiens, MV4-11, 72 h, MV-4-11, 72 hours incubation, CellTiter-Glo, read-out: Antiproli MV-4-11
[12] = MV-4-11, 72 hours incubation, CellTiter-Glo, read-out: Antiproli MV-4-11
[13] = AMO-1, 72 hours incubation, CellTiter-Glo, read-out: Antiproli AMO-1
[14] = read-out: Caspase SUDHL5 [M] (median), SUDHL5, 3 hours treatment, Caspase-Glo 3/7
[15] = read-out: Antiproli A2780 [M], A2780, 72 hours incubation, CellTiter-Glo
[16] = read-out: Antiproli AMO-1, AMO-1, 72 hours incubation, CellTiter-Glo
[17] = read-out: Caspase SUDHL10 [M] (median), SUDHL10, 3 hours treatment, Caspase-Glo 3/7
[18] = read-out: Antiproli SUDHL5 [M] (median), SUDHL5, 72 hours incubation, CellTiter-Glo

Sequence of MCL-1 (Q07820 173-321 K194A/K197A/R201A, looked up): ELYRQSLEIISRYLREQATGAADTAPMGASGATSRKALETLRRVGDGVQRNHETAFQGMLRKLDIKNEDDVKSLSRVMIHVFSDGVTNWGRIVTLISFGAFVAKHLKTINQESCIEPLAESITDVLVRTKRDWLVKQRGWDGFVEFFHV
Sequence of BCL-2 (P10415 1-211): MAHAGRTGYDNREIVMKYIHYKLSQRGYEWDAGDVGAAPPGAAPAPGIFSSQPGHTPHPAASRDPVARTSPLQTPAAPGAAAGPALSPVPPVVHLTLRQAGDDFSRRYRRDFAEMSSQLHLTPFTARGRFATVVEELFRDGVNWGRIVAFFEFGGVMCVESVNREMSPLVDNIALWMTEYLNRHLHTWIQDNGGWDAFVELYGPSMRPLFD
Sequence of BCL-XL (Q07817 1-212): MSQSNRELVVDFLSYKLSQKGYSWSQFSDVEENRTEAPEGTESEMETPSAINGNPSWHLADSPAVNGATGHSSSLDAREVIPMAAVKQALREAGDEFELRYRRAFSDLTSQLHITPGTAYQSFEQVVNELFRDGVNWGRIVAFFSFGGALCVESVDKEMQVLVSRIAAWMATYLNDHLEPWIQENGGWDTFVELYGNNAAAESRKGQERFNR

Structure (SMILES) | IC50 (SUDHL5 [1]; [6]) | IC50 (SUDHL5 [2]; Homo sapiens, SU-DHL-5, 5 h) | IC50 (SUDHL10 [3]; Homo sapiens, SU-DHL10, 5 h) | EC50 (SUDHL5 [4]; [7]) | IC50 (BCL-2) | IC50 (BCL-XL) | IC50 (AMO-1; [9]) | EC50 (SUDHL10 [5]; [10]) | IC50 (MCL-1) | IC50 (SUDHL5 [2]) | IC50 (SUDHL10 [3]) | EC50 (SUDHL5 [4]; [14]) | IC50 (A2780; [15]) | IC50 (AMO-1; [16]) | EC50 (SUDHL10 [5]; [17]) | IC50 (SUDHL5 [1]; [18]) | further results
CCc1c2c(nn1C)COCc1ccccc1Cn1c(C(=O)O)c(CCCOc3cccc4c3CCCC4)c3ccc(F)c-2c31 (racemic) [Example 77, (rac)-14-Ethyl-15-fluoro-13-methyl-1-(3-((5,6,7,8-tetrahydronaphthalen-1-yl)oxy)propyl)-4,9,11,13-tetrahydrobenzo[3,4]pyrazolo[4′,3′:9,10][1]oxa[6]azacycloundecino[8,7,6-hi]indole-2-carboxylic Acid] | 5.8e-06 M | 3e-06 M | 6.2e-06 M | 2.4e-06 M | 12.6 µM | > 20 µM | 7.22e-06 M | 8.4e-06 M |  |  |  |  |  |  |  |  | IC50 (A2780; [8]): 1.02e-05 M
Cc1nn(C)c2c1-c1c(F)ccc3c(CCCOc4cccc5ccccc45)c(C(=O)O)n(c13)Cc1ccccc1COC2 (racemic) [Example 80, (rac)-15-Fluoro-12,14-dimethyl-1-(3-(naphthalen-1-yloxy)propyl)-4,9,11,12-tetrahydrobenzo-[3,4]pyrazolo[4′,3′:9,10][1]oxa[6]azacycloundecino[8,7,6-hi]indole-2-carboxylic Acid] | 7.7e-06 M | 4.3e-06 M | > 1.1e-05 M | 5.2e-06 M | > 20 µM | > 20 µM | 2.57e-05 M | > 2.5e-05 M | 7.6e-09 M |  |  |  |  |  |  |  | IC50 (A2780; [8]): 1.78e-05 M
CCc1nn(C)c2c1-c1c(F)ccc3c(CCCOc4cccc5c4CCC5)c(C(=O)O)n(c13)Cc1ccccc1COC2 (racemic) [Example 87, (rac)-1-(3-((2,3-Dihydro-1H-inden-4-yl)oxy)propyl)-14-ethyl-15-fluoro-12-methyl-4,9,11,12-tetrahydrobenzo[3,4]pyrazolo[4′,3′:9,10][1,6]oxaazacycloundecino[8,7,6-hi]indole-2-carboxylic Acid] | 2.1e-06 M | 3.2e-06 M | 6e-06 M | 2.3e-06 M | 13.7 µM | > 20 µM | 1.29e-05 M | 9.4e-06 M | 4.5e-09 M |  |  |  |  |  |  |  | IC50 (MV-4-11; [11]): 1.24e-05 M; IC50 (MV-4-11; [12]): 6.98e-06 M; IC50 (AMO-1; [13]): 6.64e-06 M
CCc1nn(C)c2c1-c1c(F)ccc3c(CCCOc4cccc5ccccc45)c(C(=O)O)n(c13)Cc1ccccc1COC2 (racemic) [Example 91, (rac)-14-Ethyl-15-fluoro-12-methyl-1-(3-(naphthalen-1-yloxy)propyl)-4,9,11,12-tetrahydrobenzo[3,4]pyrazolo[4′,3′:9,10][1,6]oxaazacycloundecino[8,7,6-hi]indole-2-carboxylic Acid] | 3.6e-06 M | 3.2e-06 M | 7.5e-06 M | 2.8e-06 M | ≥ 20.5 µM | > 20 µM | 1.87e-05 M | 1.2e-05 M | 8.6e-09 M |  |  |  |  |  |  |  | IC50 (MV-4-11; [11]): 1.24e-05 M; IC50 (MV-4-11; [12]): 1.17e-05 M; IC50 (AMO-1; [13]): 1.53e-05 M
Cc1c2c(nn1C)CN(C)Cc1ccccc1Cn1c(C(=O)O)c(CCCOc3cccc4ccccc34)c3cccc-2c31 (single isomer, unassigned; enantiomer 1) [Example 15, 4,5,8-Trimethyl-17-[3-(naphthalen-1-yloxy)propyl]-7,8,9,14-tetrahydro-5H-indolo[1,7-bc]-pyrazolo[4,3-e][2,8]benzodiazacycloundecine-16-carboxylic acid-N-ethylethanamine Salt (Enantiomer 1)] |  |  |  |  | > 20 µM | > 20 µM |  |  | 6.9e-09 M | 3.3e-06 M | 1.1e-05 M | 2.6e-06 M | > 3.3e-05 M | 6.25e-06 M and 5.63e-06 M | 1.2e-05 M |  | IC50 (SUDHL5 [1]; Homo sapiens, SU-DHL-5, 72 h, read-out: Antiproli SUDHL5 [M] (median), SUDHL5, 72 hours incubation, CellTiter-Glo): 2.8e-06 M
Cc1c2c(nn1C)COCc1cccnc1Cn1c(C(=O)O)c(CCCOc3cccc4ccccc34)c3ccc(Cl)c-2c31 (single isomer, unassigned; enantiomer 1) [Example 40, 3-Chloro-4,5-dimethyl-17-[3-(naphthalen-1-yloxy)propyl]-5,7,9,14-tetrahydropyrazolo-[4′,3′:9,10]pyrido[3′,2′:3,4][1,6]oxazacycloundecino[8,7,6-hi]indole-16-carboxylic acid-N-ethylethanamine Salt (Enantiomer 1)] |  | 3.3e-06 M | 8.3e-06 M |  | > 20 µM | 19.4 µM |  |  |  |  |  | 2.5e-06 M | 2.19e-05 M | 9.07e-06 M |  | 2.2e-06 M | IC50 (AMO-1; Homo sapiens, AMO1, 72 h, read-out: Antiproli AMO-1 [M], AMO-1, 72 hours incubation, CellTiter-Glo): 7.53e-06 M; EC50 (SUDHL10 [5]; Homo sapiens, SU-DHL10, 3 h, read-out: Caspase SUDHL10 [M] (median), SUDHL10, 3 hours treatment, Caspase-Glo 3/7): 1.4e-05 M
CCc1c2c(nn1C)COCc1ccccc1Cn1c(C(=O)O)c(CCCOc3cccc4ccccc34)c3ccc(F)c-2c31 (single isomer, unassigned; enantiomer 1) [Example 71, (−)-4-Ethyl-3-fluoro-5-methyl-17-{3-[(naphthalen-1-yl)oxy]propyl}-5,7,9,14-tetrahydroindolo[7,1-fg]pyrazolo[3,4-d][2,8]benzoxazacycloundecine-16-carboxylic acid-N-ethylethanamine Salt (Enantiomer 1)] |  |  |  |  | 12.8 µM | > 20 µM |  |  | 1.2e-09 M | 1.9e-06 M | 3.6e-06 M | 1.6e-06 M | 9.41e-06 M | 3.48e-06 M | 4e-06 M | 2.5e-06 M | IC50 (MV-4-11; Homo sapiens, MV4-11, 72 h, read-out: Antiproli MV-4-11 [M], MV-4-11, 72 hours incubation, CellTiter-Glo): 4.81e-06 M
CCc1c2c(nn1C)COCc1ccccc1Cn1c(C(=O)O)c(CCCOc3cccc4cc(F)ccc34)c3ccc(F)c-2c31 (single isomer, unassigned; enantiomer 1) [Example 74, (−)-4-Ethyl-3-fluoro-17-{3-[(6-fluoronaphthalen-1-yl)oxy]propyl}-5-methyl-5,7,9,14-tetrahydroindolo[7,1-fg]pyrazolo[3,4-d][2,8]benzoxazacycloundecine-16-carboxylic acid-N-ethylethanamine Salt (Enantiomer 1)] |  |  |  |  | 19.8 µM | > 20 µM |  |  | 9.2e-10 M | 1.1e-06 M | 1.4e-06 M | 8.2e-07 M |  | 1.78e-06 M | 1.2e-06 M | 1.3e-06 M | IC50 (MV-4-11; read-out: Antiproli MV-4-11, MV-4-11, 72 hours incubation, CellTiter-Glo): 3.65e-06 M
